Results: ChEMBL document CHEMBL5104148, “Discovery of derivatives from Spartina alterniflora-sourced moiety as xanthine oxidase inhibitors to lower uric acid” (Bioorg Med Chem Lett, 2022)
Values belong to the compound of their own block, whether it stands above or below them.

How the values were obtained:
[1] = Cytotoxicity against human L02 cells assessed as reduction in cell viability incubated for 24 hrs by MTT assay; assay type: toxicity, cell-based
Mus musculus [2] = test: Anti-hyperuricemic activity against hypoxanthine and oteracil potassium induced hyperuricemia in Kunming mouse model assessed as uric acid level at 5 mg/kg, IG administered daily (reference value: 631.6 +/- 103.1 uM); assay type: functional
Mus musculus [3] = test: Anti-hyperuricemic activity against hypoxanthine and oteracil potassium induced hyperuricemia in Kunming mouse model assessed as alanine aminotransferase level at 5 mg/kg, IG administered daily (reference value: 28.05 +/- 8.478 U/L); assay type: functional
Mus musculus [4] = test: Anti-hyperuricemic activity against hypoxanthine and oteracil potassium induced hyperuricemia in Kunming mouse model assessed as total bilirubin level at 5 mg/kg, IG administered daily (reference value: 12.05 +/- 4.92 uM); assay type: functional
Mus musculus [5] = test: Anti-hyperuricemic activity against hypoxanthine and oteracil potassium induced hyperuricemia in Kunming mouse model assessed as blood urea nitrogen level at 5 mg/kg, IG administered daily (reference value: 53.09 +/- 1.937 mg/dl); assay type: functional
Mus musculus [6] = test: Anti-hyperuricemic activity against hypoxanthine and oteracil potassium induced hyperuricemia in Kunming mouse model assessed as creatinine level at 5 mg/kg, IG administered daily (reference value: 59.12 +/- 7.198 uM); assay type: functional
[7] = Elimination half life in rat at 3 mg/kg, po measured after 24 hrs; assay type: ADME, organism-based; conditions: in vivo, read-out: beta t1/2 (converted)
[8] = Tmax in rat at 3 mg/kg, po measured after 24 hrs; assay type: ADME, organism-based; conditions: in vivo
[9] = Cmax in rat at 3 mg/kg, po measured after 24 hrs; assay type: ADME, organism-based; design: time 24 hrs, dose 3 mg/kg, route po; conditions: in vivo
[10] = AUC(0 to t) in rat at 3 mg/kg, po measured after 24 hrs; assay type: ADME, organism-based; design: dose 3 mg/kg, time 24 hrs, route po; conditions: in vivo
[11] = AUC(0 to infinity) in rat at 3 mg/kg, po measured after 24 hrs; assay type: ADME, organism-based; design: dose 3 mg/kg, time 24 hrs, route po; conditions: in vivo
[12] = Elimination half life in rat at 1 mg/kg, iv measured after 24 hrs; assay type: ADME, organism-based; conditions: in vivo, read-out: beta t1/2 (converted)
[13] = Tmax in rat at 1 mg/kg, iv measured after 24 hrs; assay type: ADME, organism-based; conditions: in vivo
[14] = Cmax in rat at 1 mg/kg, iv measured after 24 hrs; assay type: ADME, organism-based; design: time 24 hrs, dose 1 mg/kg, route iv; conditions: in vivo
[15] = AUC(0 to t) in rat at 1 mg/kg, iv measured after 24 hrs; assay type: ADME, organism-based; design: dose 1 mg/kg, time 24 hrs, route iv; conditions: in vivo
[16] = AUC(0 to infinity) in rat at 1 mg/kg, iv measured after 24 hrs; assay type: ADME, organism-based; design: dose 1 mg/kg, time 24 hrs, route iv; conditions: in vivo
[17] = Clearance in rat at 1 mg/kg, iv measured after 24 hrs; assay type: ADME, organism-based; conditions: in vivo
[18] = Volume of distribution in rat at 1 mg/kg, iv measured after 24 hrs; assay type: ADME, organism-based; conditions: in vivo
[19] = Oral bioavailability in rat at 3 mg/kg measured after 24 hrs; assay type: ADME, organism-based; conditions: in vivo
[20] = biological target: Xanthine dehydrogenase/oxidase (Homo sapiens, UniProt P47989); test: Inhibition of xanthine oxidase (unknown origin) at 10 uM relative to control
Sequence of Xanthine dehydrogenase/oxidase (P47989 whole entry): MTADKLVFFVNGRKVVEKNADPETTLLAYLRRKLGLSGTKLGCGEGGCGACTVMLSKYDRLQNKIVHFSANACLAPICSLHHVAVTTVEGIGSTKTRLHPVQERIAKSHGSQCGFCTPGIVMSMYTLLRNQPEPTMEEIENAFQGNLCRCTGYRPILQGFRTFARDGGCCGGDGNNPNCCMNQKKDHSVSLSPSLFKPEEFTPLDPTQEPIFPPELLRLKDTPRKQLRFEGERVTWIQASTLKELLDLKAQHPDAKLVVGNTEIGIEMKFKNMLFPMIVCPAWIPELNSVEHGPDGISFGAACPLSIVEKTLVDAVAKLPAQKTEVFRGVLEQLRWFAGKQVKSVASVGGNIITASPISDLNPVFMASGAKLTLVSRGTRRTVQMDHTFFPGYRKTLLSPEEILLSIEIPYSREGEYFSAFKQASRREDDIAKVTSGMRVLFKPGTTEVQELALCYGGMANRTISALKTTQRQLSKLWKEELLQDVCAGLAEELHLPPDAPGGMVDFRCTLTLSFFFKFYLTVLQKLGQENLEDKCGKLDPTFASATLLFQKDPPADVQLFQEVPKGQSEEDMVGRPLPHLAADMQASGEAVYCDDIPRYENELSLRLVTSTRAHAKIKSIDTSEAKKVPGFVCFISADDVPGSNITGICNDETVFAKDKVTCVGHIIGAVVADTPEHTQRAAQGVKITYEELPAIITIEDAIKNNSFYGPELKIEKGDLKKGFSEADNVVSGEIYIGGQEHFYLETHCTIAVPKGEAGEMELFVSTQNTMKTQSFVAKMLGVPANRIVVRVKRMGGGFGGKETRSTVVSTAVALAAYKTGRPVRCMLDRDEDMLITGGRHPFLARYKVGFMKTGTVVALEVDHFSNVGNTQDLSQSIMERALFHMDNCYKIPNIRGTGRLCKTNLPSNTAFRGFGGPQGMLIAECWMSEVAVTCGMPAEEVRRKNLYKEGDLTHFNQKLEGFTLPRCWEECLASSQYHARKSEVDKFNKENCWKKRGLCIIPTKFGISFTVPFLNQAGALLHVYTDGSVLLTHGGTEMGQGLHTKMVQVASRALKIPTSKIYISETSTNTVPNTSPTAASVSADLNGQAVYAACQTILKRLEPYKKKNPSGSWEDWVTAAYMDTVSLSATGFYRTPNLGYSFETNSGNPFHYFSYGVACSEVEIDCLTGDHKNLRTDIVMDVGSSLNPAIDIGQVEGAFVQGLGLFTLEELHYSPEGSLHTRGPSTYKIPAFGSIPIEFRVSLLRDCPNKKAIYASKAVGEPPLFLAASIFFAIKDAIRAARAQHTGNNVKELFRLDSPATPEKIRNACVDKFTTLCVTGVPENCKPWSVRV

Compound: CCCCS(=O)(=O)Oc1ccc(/C=C/C(=O)Nc2ccccc2C)cc1OC
CC50 at 24 h [1]: 56.1 µM

Compound: CCCCS(=O)(=O)Oc1ccc(/C=C/C(=O)Nc2ccc(Cl)cc2)cc1OC
CC50 at 24 h [1]: 81.2 µM

Compound: CCCCS(=O)(=O)Oc1ccc(/C=C/C(=O)Nc2cccc(C)c2)cc1OC
CC50 at 24 h [1]: 33.6 µM

Compound: COc1cc(/C=C/C(=O)Nc2cccc(C)c2)ccc1OS(=O)(=O)c1ccc(Cl)cc1
CC50 at 24 h [1]: 73.5 µM
Activity (Mus musculus [2]): 552.9 µM
Activity (Mus musculus [3]): 25.21 U/L
Activity (Mus musculus [4]): 8.296 µM
Activity (Mus musculus [5]): 33.45 mg/dL
Activity (Mus musculus [6]): 45.88 µM

Compound: CCCCS(=O)(=O)Oc1ccc(/C=C/C(=O)OCCC)cc1OC
CC50 at 24 h [1]: 61.8 µM

Compound: CCCCS(=O)(=O)Oc1ccc(/C=C/C(=O)Nc2ccc(C)cc2)cc1OC
CC50 at 24 h [1]: 26.8 µM

Compound: CCCCS(=O)(=O)Oc1ccc(/C=C/C(=O)Nc2ccccc2I)cc1OC
CC50 at 24 h [1]: 24.5 µM

Compound: CCCCOC(=O)/C=C/c1ccc(OS(=O)(=O)CCCC)c(OC)c1
CC50 at 24 h [1]: 115 µM

Compound: COc1cc(/C=C/C(=O)OCC(C)C)ccc1OS(=O)(=O)c1ccc(Cl)cc1
CC50 at 24 h [1]: 102 µM

Compound: CCOC(=O)/C=C/c1ccc(OS(=O)(=O)c2ccc(Cl)cc2)c(OC)c1
CC50 at 24 h [1]: 137 µM

Compound: COC(=O)/C=C/c1ccc(OS(=O)(=O)c2ccc(Cl)cc2)c(OC)c1
CC50 at 24 h [1]: 99.5 µM

Compound: CCCOC(=O)/C=C/c1ccc(OS(=O)(=O)c2ccc(Cl)cc2)c(OC)c1
CC50 at 24 h [1]: 150 µM

Compound: CCCCOC(=O)/C=C/c1ccc(OS(=O)(=O)c2ccc(Cl)cc2)c(OC)c1
CC50 at 24 h [1]: 14 µM

Compound: COc1cc(/C=C/C(=O)Nc2ccc(I)cc2)ccc1OS(=O)(=O)c1ccc(Cl)cc1
CC50 at 24 h [1]: 39.4 µM

Compound: CCCCS(=O)(=O)Oc1ccc(/C=C/C(=O)Nc2ccccc2)cc1OC
CC50 at 24 h [1]: 3.32 µM

Compound: CCCCS(=O)(=O)Oc1ccc(/C=C/C(=O)OCC(C)C)cc1OC
CC50 at 24 h [1]: 63.8 µM

Compound: CCCCS(=O)(=O)Oc1ccc(/C=C/C(=O)Nc2ccccc2Br)cc1OC
CC50 at 24 h [1]: 5 µM

half-life [7]: 79.2 min
Tmax [8]: 8.34 min
Cmax [9]: 1030 ng/mL
AUC(0-t) at 24 h [10]: 1620 ng·h/mL
AUC(0-inf) [11]: 1640 ng·h/mL
half-life [12]: 34.2 min
Tmax [13]: 6 min
Cmax [14]: 1930 ng/mL
AUC(0-t) at 24 h [15]: 847 ng·h/mL
AUC(0-inf) [16]: 851 ng·h/mL
clearance [17]: 19.8 mL/min/kg
Vd [18]: 0.996 L/kg
bioavailability [19]: 63.7%
Compound: CCCCS(=O)(=O)Oc1ccc(/C=C/C(=O)OCC)cc1OC
CC50 at 24 h [1]: 14.4 µM
Activity (Mus musculus [2]): 295 µM
Activity (Mus musculus [3]): 29.23 U/L
Activity (Mus musculus [4]): 8.557 µM
Activity (Mus musculus [5]): 30.48 mg/dL
Activity (Mus musculus [6]): 34.38 µM

Compound: CCCCS(=O)(=O)Oc1ccc(/C=C/C(=O)Nc2ccc(CC)cc2)cc1OC
CC50 at 24 h [1]: 89 µM

Compound: CCCCS(=O)(=O)Oc1ccc(/C=C/C(=O)OC)cc1OC
CC50 at 24 h [1]: 208 µM

Compound: Oc1ncnc2[nH]ncc12 [ALLOPURINOL]
inhibition at 10 µM [20]: 45.6%
CC50 at 24 h [1]: 6.84 µM
Activity (Mus musculus [2]): 309.2 µM
Activity (Mus musculus [3]): 32.11 U/L
Activity (Mus musculus [4]): 10.36 µM
Activity (Mus musculus [5]): 43.64 mg/dL
Activity (Mus musculus [6]): 71.97 µM
